Consider 13 compounds from PubChem BioAssay (NCI).

Some test systems named below: UO-31 renal; BT-549 breast; HT29 colon; UACC-257 melanoma; DU-145 prostate; MDA-MB-231 breast; NCI-H226 lung; SNB-19 CNS; OVCAR-5 ovarian; SK-MEL-5 melanoma.
Common to all, as to test: NCI anticancer screen, dose series, 48 h

Each structure is given as a SMILES string.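 Cells were grown in 96-well plates and exposed to each compound for 48 hours at five concentrations; endpoints were interpolated linearly between bracketing concentrations, or set to the highest concentration if not reached. At the GI50, growth is halved. TGI: concentration producing complete growth inhibition.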

Regarding `COC(=O)C1=C(O)C(C(=O)OC)[C@]2(O)[C@H](C(=O)OC)[C@H]1C[C@@H](c1ccc(Cl)cc1)[C@H]2C(=O)OC` (stereo partly specified), the TGI with UO-31 renal was 21.4 µM; in the test on BT-549 breast, 38.9 µM; in the test on HT29 colon it was 32 µM; in the test on UACC-257 melanoma it was 26.5 µM; in the test on DU-145 prostate, 30.4 µM; in the test with MDA-MB-231 breast it was 37.6 µM. Further, the TGI amounted to 38.2 µM in the test with NCI-H226 lung, 29.8 µM in the test with SNB-19 CNS, 40.3 µM with OVCAR-5 ovarian and 20.5 µM in the test with SK-MEL-5 melanoma.
As for `COC(=O)c1cc(C)ccc1C1CN=NC12Cc1ccc(C)cc1C2=O` (stereo unspecified), the TGI in the test on UO-31 renal, with BT-549 breast, with HT29 colon, with UACC-257 melanoma, in the test with DU-145 prostate and with MDA-MB-231 breast was over 100 µM each time. For the same compound, the TGI in the test with NCI-H226 lung is over 100 µM; in the test on SNB-19 CNS, over 100 µM; in the test on OVCAR-5 ovarian it was over 100 µM; in the test on SK-MEL-5 melanoma, 31.9 µM.
Regarding `COc1ccccc1NC(=S)Nc1cc(C)cc(C)n1`, the TGI in the test with UO-31 renal, with BT-549 breast, with HT29 colon, with UACC-257 melanoma, in the test with DU-145 prostate and in the test with MDA-MB-231 breast was over 100 µM throughout. The TGI in the test with NCI-H226 lung, in the test on SNB-19 CNS, in the test on OVCAR-5 ovarian and with SK-MEL-5 melanoma was over 100 µM throughout.
Consider `CCC/C=C/c1cc2c(cc1O)CC[C@@H]1[C@@H]2CC[C@]2(C)[C@@H](O)CC[C@@H]12`, for which the TGI with UO-31 renal was found to be 31 µM; with BT-549 breast, 36.1 µM; in the test on HT29 colon it was 32.9 µM; in the test on UACC-257 melanoma, 30.8 µM; with DU-145 prostate it was 34.2 µM; in the test with MDA-MB-231 breast it was 33.7 µM. The TGI with NCI-H226 lung is 45.8 µM; with SNB-19 CNS, over 56.6 µM; in the test on OVCAR-5 ovarian it was 35.1 µM; in the test with SK-MEL-5 melanoma it was 30.2 µM. Moreover, in the test with DU-145 prostate, the GI50 is 18.7 µM.
For `Cc1ccc([N+](=O)[O-])cc1S(=O)(=O)Nc1ccc(C2=NN(c3ccc([N+](=O)[O-])cc3[N+](=O)[O-])C(c3cccs3)C2)cc1` (stereo unspecified), the TGI with UO-31 renal was over 100 µM; with BT-549 breast, 49.8 µM; in the test on HT29 colon, over 100 µM; in the test on UACC-257 melanoma, 42.1 µM; in the test on DU-145 prostate, over 100 µM; in the test with MDA-MB-231 breast, 50.8 µM. In addition, the TGI with NCI-H226 lung was 60.1 µM; in the test on SNB-19 CNS, over 100 µM; in the test with OVCAR-5 ovarian it was over 100 µM; with SK-MEL-5 melanoma it was 26.1 µM.
On to `C[C@]12CC[C@H](OC(=O)Cc3ccc(N(CCCl)CCCl)cc3)CC1=CC[C@@H]1[C@@H]2CC[C@]2(C)C(=O)CC[C@@H]12`, for which the TGI in the test on UO-31 renal, in the test with BT-549 breast, in the test with HT29 colon, in the test on UACC-257 melanoma, with DU-145 prostate and in the test on MDA-MB-231 breast was over 100 µM in each case. For the same compound, the TGI in the test with NCI-H226 lung, in the test with SNB-19 CNS, in the test with OVCAR-5 ovarian and in the test with SK-MEL-5 melanoma was over 100 µM throughout.
Turning to `CCOC(=O)C1(Cc2ccccc2)C=CN(C(=O)c2ccccc2)C=C1`, the TGI with UO-31 renal was over 100 µM; in the test on BT-549 breast, over 100 µM; with HT29 colon, over 100 µM; with UACC-257 melanoma, 51.1 µM; in the test on DU-145 prostate, over 100 µM; with MDA-MB-231 breast, over 100 µM. In addition, the TGI was over 100 µM in the test with NCI-H226 lung, over 100 µM in the test with SNB-19 CNS, over 100 µM in the test with OVCAR-5 ovarian and 29.8 µM with SK-MEL-5 melanoma.
On to `c1ccc(-c2cn3c(nc4ccccc43)c(-c3ccccc3)n2)cc1`, for which the TGI with UO-31 renal was over 65.4 µM; with BT-549 breast it was over 100 µM; in the test with HT29 colon, over 100 µM; in the test on UACC-257 melanoma, over 100 µM; in the test with DU-145 prostate it was over 100 µM; with MDA-MB-231 breast, over 100 µM. In addition, the TGI in the test on NCI-H226 lung is over 96.7 µM; in the test with SNB-19 CNS it was 81.7 µM; in the test with OVCAR-5 ovarian, over 100 µM; in the test with SK-MEL-5 melanoma it was over 100 µM.
As to `CCOC(=O)c1cc2c([nH]1)c(O)cc1c2ccn1Cc1ccccc1`, the TGI in the test with UO-31 renal worked out at 29.3 µM; with BT-549 breast, 32.2 µM; in the test with HT29 colon it was 30.2 µM; with UACC-257 melanoma it was 34.8 µM; with DU-145 prostate, 34.3 µM; with MDA-MB-231 breast it was 49.1 µM. The TGI is 36.9 µM in the test on NCI-H226 lung, 28.2 µM with SNB-19 CNS, 41.4 µM in the test on OVCAR-5 ovarian and 24.5 µM in the test on SK-MEL-5 melanoma.
For the compound `COc1ccc(/C=C2\CCC(C)C3C2=NN(c2ccccc2)C3c2ccc(OC)c(OC)c2)cc1OC` (stereo unspecified), the TGI worked out at 22.1 µM with UO-31 renal; 21.5 µM with BT-549 breast; 18.3 µM in the test with HT29 colon; 9.74 µM in the test with UACC-257 melanoma; 12.7 µM in the test with DU-145 prostate; 12.5 µM in the test on MDA-MB-231 breast. For the same compound, the TGI in the test with NCI-H226 lung turned out to be 12.9 µM; in the test with SNB-19 CNS, 36.2 µM; with OVCAR-5 ovarian, 24 µM; in the test with SK-MEL-5 melanoma, 9.68 µM.
Turning to `Ic1ccc2c(c1)N(c1ccccc1)c1cc(N=c3ccc4nc5ccc(I)cc5n(-c5ccccc5)c-4c3)ccc1N2`, the TGI with UO-31 renal was over 100 µM; in the test on BT-549 breast, over 100 µM; with HT29 colon it was 73.1 µM; with UACC-257 melanoma, over 100 µM; in the test on DU-145 prostate it was over 100 µM; with MDA-MB-231 breast, over 100 µM. In addition, the TGI in the test on NCI-H226 lung, in the test with SNB-19 CNS, with OVCAR-5 ovarian and with SK-MEL-5 melanoma was over 100 µM in each case.
In the case of `COc1ccc2c(c1)-c1nc(=S)n(CCCN(C)C)c3ccc([N+](=O)[O-])c(c13)N2`, the TGI with UO-31 renal is 1.82 µM; in the test with BT-549 breast, 21.7 µM; in the test on HT29 colon, 1.95 µM; in the test with UACC-257 melanoma, 3.6 µM; in the test with DU-145 prostate it was 17.9 µM; with MDA-MB-231 breast, 2.1 µM. The TGI came out at 24.4 µM in the test on NCI-H226 lung, 11 µM in the test on SNB-19 CNS, 3.62 µM in the test with OVCAR-5 ovarian and 10.1 µM with SK-MEL-5 melanoma.
For `NCCCCC(NC(=O)C(N)Cc1ccc(O)cn1)C(=O)O` (stereo unspecified), the TGI in the test with UO-31 renal, in the test with BT-549 breast, in the test on HT29 colon, in the test on UACC-257 melanoma, with DU-145 prostate and in the test on MDA-MB-231 breast was over 100 µM throughout. In addition, the TGI in the test with NCI-H226 lung, in the test on SNB-19 CNS, in the test with OVCAR-5 ovarian and with SK-MEL-5 melanoma was over 100 µM each time.
